Consider one compound from US20260283946A1, “PHARMACEUTICAL DRY POWDER COMPOSITION AND METHODS FOR TREATING RESPIRATORY TRACT INFECTIONS” (priority 2022, published 2026).

Molecules are shown by their SMILES.

The subject of the assay is Vero cells. The assay can be described thus: Luciferase assay of total cellular ATP. Type of assay: cell-based, African green monkey. The following applies: 5 μM ouabain, 0.4, 0.8 and 1.1% BREATHOX POWDER, 1 h. How it is done: Then to see the available ATP a luciferase assay was performed. Changes of the total concentration of ATP in Vero cells exposed to increasing concentrations of NaCl for 1 or 72 h was determined by plate microfluorimetry recordings with the FlexStation III microplate reader and the ATP Assay Kit (SIGMA-ALDRICH) following the manufacturer's instructions. The kit provides extremely sensitive results, detecting ATP release of 10-100 mammalian cells/well, based on the firefly luciferase-catalyzed oxidation of D-luciferin in the presence of ATP, which the amount of ATP is quantified by the amount of light (hv) produced. Recordings of the luminescence intensity of 5×10^4 cells in black clear bottom of 96 wells plates were acquired at rest (point 0 h), 1 h, 24 h and 72 h after NaCl challenge (depolarizing agent).
In order to test whether the reduced level of ATP was caused by the increased activity of Na+/K+ ATPase transporter, Vero cells were treated with 0.4, 0.8 and 1.1% of BREATHOX® POWDER in presence or absence of 5 μM ouabain (Na+/K+ ATPase transporter inhibitor). Changes in total ATP concentration in Vero cells exposed to increasing concentrations of BREATHOX® POWDER with or without 5 μM ouabain for 1 hour was determined by plate microfluorimetry recordings with the FlexStation III microplate reader and the ATP Assay Kit (SIGMA-Aldrich) following the manufacturer's instructions. […]

Regarding `C[C@@H]1O[C@@H](O[C@H]2C[C@@H](O)[C@]3(CO)[C@H]4[C@H](O)C[C@]5(C)[C@@H](C6=CC(=O)OC6)CC[C@]5(O)[C@@H]4CC[C@]3(O)C2)[C@H](O)[C@H](O)[C@H]1O` [ouabain], the “decrease in ATP level caused by BREATHOX POWDER” value is “significantly reversed”.
